This assay can be described thus: blockers of an Epstein-Barr virus protein-peptide interaction – biochemical, fluorescence polarization, dose response (AID 1419). The conditions noted are these: cell-free protein-peptide binding, 2 h; for fold change: measured here: P channel fold over control, at 54 µM. A general note: In fluorescence polarisation assays a small probe gives low polarisation when free and higher when bound to something large.

Activity calls are given as the source filed them. No rule for the calls is given here.

In general, IC50 refers to the midpoint of a concentration-inhibition curve.

Take `COc1cc(/C=N/c2oc(-c3ccccc3)cc2C#N)ccc1O`: the IC50 is 15.5 µM and the fold change turned out to be 10.2.
As to `Cn1c(=O)cc2c3c(c(N4CCCCC4)ccc31)C(=O)c1ccccc1-2`, the IC50 is 4.67 µM and the fold change is 1.91.
In the case of `NS(=O)(=O)c1ccc(NC(=O)c2ccc(-c3ccccc3)cc2)cc1`, the IC50 was 25.1 µM and the fold change was determined as 1.08.
The corresponding values for `CCn1c(CSc2nccn2C)nc2cc(C(=O)O)ccc21` are 13 µM and 2.34.
With `O=S(=O)(Nc1cc2nc3ccccc3nc2n1Cc1ccccc1)c1ccc(Cl)cc1`, the IC50 is 2.89 µM and the fold change was determined as 13.
The corresponding values for `O=C(O)c1ccccc1/C=N/NC(=O)c1cc(-c2ccco2)nc2ccccc12` are 30.4 µM (inactive) and 1.03.
The corresponding values for `CC(=C/c1ccccc1)/C=N/NC(=O)c1cnccn1` are > 54 µM (inactive) and 1.1.
The corresponding values for `CCN(CC)C(=O)CSc1nnc2nnc3cc(Cl)ccc3n12` are 4.38 µM and 3.1.
Take `N#Cc1c(N)sc(=S)c2c1CCCC2`: the IC50 was > 54 µM (inactive) and the fold change was determined as 1.09.
`C=CCn1c(O)c(N=Nc2ccccc2C)c2ccccc21`: the IC50 is 14.9 µM and the fold change came to 12.4.
For the molecule `COc1ccc(N=Cc2c(O)n(Cc3ccccc3)c(=S)[nH]c2=O)c(OC)c1`, the IC50 was > 54 µM (inactive) and the fold change was determined as 3.88.
Regarding `COc1cc(CCC(=O)N2CCN(c3ncccn3)CC2)cc(OC)c1OC`, the IC50 was > 54 µM (inactive) and the fold change worked out at 1.05.
As for `CCN(CC)S(=O)(=O)c1ccc(C(=O)/C=C/c2ccc(-c3ccc([N+](=O)[O-])cc3)o2)cc1`, the half-maximal inhibitory concentration (IC50) is 2.97 µM and the fold change was found to be 12.8.
The corresponding values for `CN1CC=C2C(C#N)=C(N)C(C#N)(C#N)C(c3cccc(Cl)c3Cl)C2C1` (stereo unspecified) are 1.44 µM and 7.33.
The corresponding values for `Cc1nnc(N2C(=O)C(O)=C(C(=O)c3ccco3)C2c2ccc(C(C)C)cc2)s1` (stereo unspecified) are 2.2 µM and 3.11.
The corresponding values for `CCOC(=O)C1CCCN(c2ccc([N+](=O)[O-])c3nonc23)C1` (stereo unspecified) are less than 0.42 µM and 143.
With `Cc1ccc[n+](-c2nc([O-])sc2C=O)c1`, the IC50 is 0.65 µM and the fold change amounted to 44.1.
The corresponding values for `O=C(COC(=O)c1c2c(nc3ccccc13)/C(=C/c1ccco1)CC2)NC1CCCC1` are > 54 µM (inactive) and 2.02.
In the case of `Cc1ccc(S(=O)(=O)C(C#N)c2nc3ccccc3nc2N2CCCC2)cc1` (stereo unspecified), the IC50 is > 54 µM (inactive) and the fold change worked out at 1.67.
For the molecule `CCOC(=O)Cn1c2ccc(OC)cc2c2nc3ccccc3nc21`, the IC50 is 0.79 µM and the fold change came out at 6.57.
As to `Cn1c(=O)c2[nH]c(-c3ccccc3Cl)c(O)c2n(C)c1=O`, the IC50 is 1.99 µM and the fold change was 2.61.
With `COC(=O)c1cc2c(C)cc3ccc(C)cn3c-2c1C(=O)OC`, the IC50 is 9.57 µM and the fold change stood at 4.48.
Regarding `Cc1cc2nc3c(=O)[nH]c(=O)[nH]c3nc2c([N+](=O)[O-])c1N`, the IC50 is less than 0.42 µM and the fold change amounted to 67.
The corresponding values for `CC(=O)Nc1ccc2cc3ccc(NC(C)=O)cc3nc2c1` are 0.56 µM and 12.5.
For the molecule `COC(=O)c1ccccc1NC(=O)Nc1ncccc1C`, the IC50 is > 54 µM (inactive) and the fold change worked out at 0.937.
As for `CCCc1cc(=O)n(-c2nc3ccccc3s2)[nH]1`, the IC50 was > 54 µM (inactive) and the fold change worked out at 0.94.
In the case of `CS(=O)(=O)n1nc(-c2ccc(Cl)cc2)nc1SCc1ccccc1`, the IC50 is > 54 µM (inactive) and the fold change turned out to be 1.16.
For `CCCNC(=O)Cn1c(=O)/c(=C\c2ccc(-c3cccc([N+](=O)[O-])c3)o2)s/c1=C\C(=O)C(C)(C)C`, the IC50 was 1.02 µM and the fold change came out at 8.62.
On to `N#Cc1c(SCC(N)=O)nc2c(c1-c1ccc(O)cc1)CCCC2`, for which the IC50 is > 54 µM (inactive) and the fold change amounted to 0.89.
The corresponding values for `COC(=O)[C@@]1(C#N)[C@@H]2C=CC(C(C)=O)=CN2[C@@H](C(N)=O)[C@@H]1c1ccc(F)cc1` are 1.05 µM and 10.2.
Turning to `O=c1ccc2[n+]([O-])c3ccc(O)cc3oc-2c1`, the IC50 is 1.34 µM and the fold change stood at 5.06.
The corresponding values for `CCOC(=O)C1C(=O)C=C(/C=C/c2ccc(N(C)C)cc2)CC1c1ccccc1` (stereo unspecified) are > 54 µM (inactive) and 7.93.
The corresponding values for `COC(=O)C(Nc1nccs1)(OC)C(F)(F)F` (stereo unspecified) are 13.8 µM and 2.09.
For `CN(C)c1cccc(C(=O)OCc2cc(=O)oc3cc(O)ccc23)c1`, the IC50 was > 54 µM (inactive) and the fold change was 1.01.
Take `O=C(COc1ccc(/C=N/NC(=O)c2ccc(O)cc2)cc1)Nc1ccc([N+](=O)[O-])cc1`: the IC50 is 2.97 µM and the fold change amounted to 0.957.
For the molecule `C=CCc1cccc(C=Nc2cc(Br)ccc2O)c1O`, the IC50 is 5.72 µM and the fold change was 27.4.
The corresponding values for `CCn1c2ccccc2c2cc(NC(=O)c3coc(=O)c(Br)c3)ccc21` are less than 0.42 µM and 21.9.
For the molecule `COC(=O)C[n+]1cccc2ccccc21`, the concentration for half-maximal inhibition (IC50) was 1.59 µM and the fold change is 14.8.
For the molecule `COc1ccc(CCNc2nc(-c3cccnc3)cs2)cc1OC`, the IC50 was > 54 µM (inactive) and the fold change was 1.04.
Turning to `Cc1cc(/C=C(/C#N)c2nc3ccccc3[nH]2)c(C)n1-c1cc(C(=O)O)cc(C(=O)O)c1`, the IC50 is 2.92 µM and the fold change is 23.1.
Take `Nc1c(O)ccc2c1C(=O)c1ccccc1C2=O`: the 50% inhibitory concentration (IC50) is 4.09 µM and the fold change came to 2.59.
The corresponding values for `CC1CC=C2C(C#N)=C(N)C(C#N)(C#N)C(c3cccs3)C2C1` (stereo unspecified) are 12.8 µM and 2.49.
The corresponding values for `N=C1/C(=C\c2ccc(-c3cccc(C(=O)O)c3)o2)C(=O)N=C2SC=C(c3ccccc3)N12` are 4.25 µM and 1.23.
The corresponding values for `COc1ccccc1Nc1nc2ccc(C)cc2cc1C#N` are 16.6 µM and 2.74.
For the molecule `CCOC(=O)c1ccc2c(c1)C1C=CCC1C(C(=O)O)N2` (stereo unspecified), the IC50 is 4.11 µM and the fold change was 1.2.
The corresponding values for `COc1cc(N2CCCC2)c(OC)cc1/C=C(/C#N)c1ccc(F)cc1` are 9.59 µM and 10.8.
As for `COc1ccccc1N1C(C)=CC(=C(C#N)c2nc3ccccc3s2)C=C1C`, the IC50 is 9.03 µM and the fold change was found to be 27.7.
For the molecule `O=c1ccc2cc3c4c(c2o1)CCCN4CCC3`, the IC50 is less than 0.42 µM and the fold change came out at 36.4.
The corresponding values for `O=C(C1=NN(c2ccccc2)C2C(=O)N(c3ccccc3Cl)C(=O)C12)c1ccccc1` (stereo unspecified) are 6.16 µM and 8.43.
As for `Cc1ccc(C2C3=C(CCCC3=O)Nc3[nH]c(=S)[nH]c(=O)c32)cc1` (stereo unspecified), the IC50 is > 54 µM (inactive) and the fold change is 0.983.
The corresponding values for `Cc1ccc(N2C(=O)C3C(C2=O)C(C(=O)c2ccc(Cl)cc2)N2CCCC32)cc1` (stereo unspecified) are > 54 µM (inactive) and 2.44.
The corresponding values for `COC(=O)c1ccc2c(c1)SC1=C(CCCC1=O)N2` are 1.44 µM and 3.08.
With `CC(C)COc1ccc(C(=O)NC(CC(C)C)C(=O)O)cc1` (stereo unspecified), the IC50 is > 54 µM (inactive) and the fold change stood at 1.07.
The corresponding values for `CC1CCCCC1NC(=O)CN1C(=O)c2cccc(N)c2C1=O` (stereo unspecified) are 2.35 µM and 2.47.
The corresponding values for `CCOC(=O)Cc1csc(SCC(=O)Nc2sc3c(c2C(N)=O)CCC3)n1` are > 54 µM (inactive) and 1.09.
Turning to `COc1cccc(CN2C(=O)c3cccc(N)c3C2=O)c1`, the half-maximal inhibitory concentration (IC50) is 4.47 µM and the fold change is 2.76.
The corresponding values for `CCOC(=O)c1cc2n(c1/N=C/N(C)C)-c1ccccc1C2=O` are less than 0.42 µM and 42.3.
Consider `CCN(CC)C(=O)CC(c1cc(OC)c(OC)c(OC)c1)c1c(OC)cc(OC)c2c(-c3ccccc3)cc(=O)oc12` (stereo unspecified), for which the IC50 is 33.8 µM (inactive) and the fold change was found to be 1.01.
In the case of `CCOC(=O)c1sc2nc3c(SCCC(=O)O)cc(C(=O)c4cc(OC)ccc4O)cn3c(=O)c2c1C`, the IC50 was > 54 µM (inactive) and the fold change amounted to 1.04.
Regarding `O=C(Nc1nnc(Cc2ccccc2)s1)c1cnccn1`, the IC50 was > 54 µM (inactive) and the fold change came out at 1.06.
Regarding `CN(C)c1ccc(N=Cc2nc(-c3ccccc3)oc2O)cc1`, the IC50 was 6.01 µM and the fold change turned out to be 21.1.
On to `CN(C)CCCN1C(=O)c2cccc3c(Br)ccc(c23)C1=O`, for which the IC50 is 7.44 µM and the fold change is 3.2.
For the molecule `CN(C(=O)COC(=O)c1cc(-c2ccco2)nc2ccccc12)C1CCS(=O)(=O)C1` (stereo unspecified), the IC50 was 2.91 µM and the fold change was 0.9.
The corresponding values for `O=C1Nc2ccc(Cl)cc2C12Nc1ccccc1-c1nnc(SCc3ccccc3F)nc1O2` (stereo unspecified) are 3.05 µM and 14.3.
For `COc1ccccc1N1C(=O)C2C(C(=O)c3ccccc3)=NN(c3ccccc3)C2C1=O` (stereo unspecified), the IC50 is 8.66 µM and the fold change amounted to 8.64.
As for `Cc1nn(C)cc1N1C(=O)c2cccc3c(N)ccc(c23)C1=O`, the IC50 is less than 0.42 µM and the fold change is 109.
For `O=[N+]([O-])c1ccc(/C=N/n2c(CO)nc3ccccc32)s1`, the IC50 is 22.7 µM and the fold change came to 6.56.
The corresponding values for `CCn1c(C)cc(C=C2C(=O)c3ccccc3C2=O)c1C` are 16.2 µM and 8.23.

The values are drawn from PubChem BioAssay AID1419 (Emory University Molecular Libraries Screening Center, 2008).
